Experimental data reported in ChEMBL document CHEMBL1145327, “Structural insights into monoamine oxidase inhibitory potency and selectivity of 7-substituted coumarins from ligand- and target-based approaches” (J Med Chem, 2006).

Key:
[1] = biological target: T1, Amine oxidase [flavin-containing] A (Rattus norvegicus, UniProt P21396); assay type: mitochondria, Sprague-Dawley, Mitochondria
T1 sequence (P21396 whole entry): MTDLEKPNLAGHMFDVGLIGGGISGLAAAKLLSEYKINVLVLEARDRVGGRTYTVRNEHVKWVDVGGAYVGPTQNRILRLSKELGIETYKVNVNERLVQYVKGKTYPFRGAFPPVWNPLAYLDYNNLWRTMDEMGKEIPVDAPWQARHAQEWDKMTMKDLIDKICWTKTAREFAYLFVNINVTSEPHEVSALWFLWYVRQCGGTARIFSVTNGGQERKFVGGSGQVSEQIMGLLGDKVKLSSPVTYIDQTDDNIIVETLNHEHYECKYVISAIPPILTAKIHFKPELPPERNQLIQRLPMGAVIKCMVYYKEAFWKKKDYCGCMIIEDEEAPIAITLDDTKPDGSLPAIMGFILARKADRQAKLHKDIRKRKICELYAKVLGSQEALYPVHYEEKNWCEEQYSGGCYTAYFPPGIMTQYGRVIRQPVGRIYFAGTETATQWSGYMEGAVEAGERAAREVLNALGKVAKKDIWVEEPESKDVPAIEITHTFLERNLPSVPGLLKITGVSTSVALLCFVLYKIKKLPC
Description: Inhibition of Sprague-Dawley rat brain mitochondria MAOA by continuous spectrophotometric assay

[2] = biological target: T2, Amine oxidase [flavin-containing] B (Rattus norvegicus, UniProt P19643); assay type: mitochondria, Sprague-Dawley, Mitochondria
T2 sequence (P19643 whole entry): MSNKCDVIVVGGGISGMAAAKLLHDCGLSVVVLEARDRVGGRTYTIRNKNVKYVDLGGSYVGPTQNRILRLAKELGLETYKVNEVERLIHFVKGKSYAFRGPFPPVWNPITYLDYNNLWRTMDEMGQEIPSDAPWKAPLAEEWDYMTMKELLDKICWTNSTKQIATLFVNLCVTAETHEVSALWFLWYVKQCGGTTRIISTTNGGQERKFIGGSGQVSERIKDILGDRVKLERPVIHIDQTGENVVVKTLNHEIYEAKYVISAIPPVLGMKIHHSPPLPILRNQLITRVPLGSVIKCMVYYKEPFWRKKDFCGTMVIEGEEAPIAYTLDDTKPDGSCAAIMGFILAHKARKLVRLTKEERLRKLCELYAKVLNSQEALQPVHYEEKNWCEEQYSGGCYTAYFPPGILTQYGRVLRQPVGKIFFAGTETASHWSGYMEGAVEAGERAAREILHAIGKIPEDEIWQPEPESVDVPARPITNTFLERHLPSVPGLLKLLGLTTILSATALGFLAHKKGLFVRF
Description: Inhibition of Sprague-Dawley rat brain mitochondria MAOB by continuous spectrophotometric assay

Row | IC50 [1] | IC50 [2] | SMILES
1 | 12600 nM | 5.13 nM | Cc1cc2ccc(OCc3cccc(Cl)c3)cc2oc1=O
2 | 5500 nM | 6.61 nM | Cc1cc2ccc(OCc3ccccc3)cc2oc1=O
3 | 18600 nM | 2750 nM | Cc1c(C)c2ccc(S(=O)(=O)Cc3ccccc3)cc2oc1=O
4 | 10000 nM | 28.2 nM | Cc1c(C)c2ccc(OC[C@@H](O)c3ccccc3)cc2oc1=O
5 | 10000 nM | 39.8 nM | Cc1c(C)c2ccc(SCc3ccccc3)cc2oc1=O
6 | – | 3240 nM | Cc1c(C)c2ccc(Oc3ccccc3)cc2oc1=O
7 | – | 112 nM | Cc1c(C)c2ccc(OC/C=C/c3ccccc3)cc2oc1=O
8 | 10200 nM | 26.9 nM | Cc1c(C)c2ccc(OCCOc3ccccc3)cc2oc1=O
9 | 2820 nM | 871 nM | Cc1c(C)c2ccc(OCS(=O)(=O)c3ccccc3)cc2oc1=O
10 | 4570 nM | – | Cc1ccc(S(=O)(=O)N(C)c2ccc3c(C)c(C)c(=O)oc3c2)cc1
11 | 3240 nM | 302 nM | Cc1c(C)c2ccc(OC[C@H](O)c3ccccc3)cc2oc1=O
12 | 9550 nM | 2400 nM | O=C(OCc1ccc2ccc(=O)oc2c1)c1ccccc1
13 | 7080 nM | 457 nM | Cc1c(C)c2ccc(CCc3ccccc3)cc2oc1=O
14 | 10000 nM | 70.8 nM | Cc1c(C)c2ccc(OCC(O)c3ccccc3)cc2oc1=O (racemic)
